Data: patent publication US9173917B2, “Methods for reducing oxidative stress in a cell with a sulfhydryl protected glutathione prodrug” (Max International, LLC, priority 2003, dated 2015)
“Also recorded” adds a separate entry of the source.

Experiments:
[1] = test system: ACP-induced hepatotoxicity; test: Protection from ACP-induced hepatotoxicity in mice (plasma ALT levels); type: in vivo, Male Swiss-Webster mice
Procedure: Male Swiss-Webster mice weighing 24-34 g were administered ACP [360 mg (or 2.45 mmol)/kg, i.p.].
In protocol 4′B, a priming dose of the prodrug (1.25 mmole/kg, i.p.) was administered 60 min prior to ACP followed by a subsequent dose (2.50 mmol/kg) 30 min post-ACP.
In protocol 3′B, the pre- and post-ACP doses were reversed.
In protocol 1, a single dose of drug was administered 30 min post-ACP.
Protocol 1′ is identical to 3′B except that the pH of the injection solution was not adjusted. In the B series, the pH of the injection solution was adjusted to neutrality with dilute, aqueous NaOH or HCl

[2] = unlike GSH or its carboxy esters with free -SH groups that are subject to oxidation; refs (9, 17); cited from earlier work

Compound: CCOC(=O)CNC(=O)C(CSC(C)=O)NC(=O)CCC(N)C(=O)O (stereo not shown) [S-Ac-GSH-OEt, S-acetylglutathione ethyl ester]
- usefulness for treating/preventing oxidative stress in the mouse model ([1]; FIGS. 1, 3 and 4): useful for treating oxidative stress

Compound: N[C@H](CSSC[C@H](NC(=O)CC[C@H](N)C(=O)O)C(=O)NCC(=O)O)C(=O)O [D-CySSG]
- hepatoprotection against ACP toxicity ([1]; FIG. 1, mouse model, protocol 4'B): lack of significant activity; also recorded: not hepatoprotective; also recorded: lack of hepatoprotection
- plasma alanine aminotransferase (ALT) levels of ACP-treated mice ([1]; FIG. 1, protocol 4'B: prodrug 1.25 mmole/kg i.p. 60 min prior to ACP, 2.50 mmol/kg 30 min post-ACP, ACP 360 mg/kg i.p., ALT 24 hrs post-ACP): statistically similar to that for ACP alone; also recorded: comparable to that for ACP alone

Compound: N[C@@H](CCC(=O)N[C@@H](CSSC[C@H](N)C(=O)O)C(=O)NCC(=O)O)C(=O)O [L-CySSG, L-cysteine-GSH disulfide]
- stability [2]: stable
